Measured values as given in PubChem BioAssay (NCI).
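Growth conditions: 96-well plates. Treatment: test compound, 48 hours, 5 concentrations. Analysis: linear interpolation between bracketing concentrations; unreached endpoints set to highest concentration. GI50 is the concentration that inhibits growth by half. At the TGI there is no net growth.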

What was measured:
Assay in all cases: growth of human tumour cells (NCI), 48 h
[1] = test system: 786-0 renal
[2] = test system: A498 renal
[3] = test system: A549 NSCLC
[4] = test system: ACHN renal
[5] = test system: BT-549 breast
[6] = test system: CAKI-1 renal
[7] = test system: CCRF-CEM leukemia
[8] = test system: COLO 205 colon
[9] = test system: DU-145 prostate
[10] = test system: EKVX NSCLC
[11] = test system: HCC-2998 colon
[12] = test system: HCT-116 colon
[13] = test system: HCT-15 colon
[14] = test system: HL-60(TB) leukemia
[15] = test system: HOP-62 NSCLC
[16] = test system: HOP-92 NSCLC
[17] = test system: HT29 colon
[18] = test system: IGROV1 ovarian
[19] = test system: K-562 leukemia
[20] = test system: KM12 colon
[21] = test system: LOX IMVI melanoma
[22] = test system: M14 melanoma
[23] = test system: MALME-3M melanoma
[24] = test system: MCF7 breast
[25] = test system: MDA-MB-231 breast
[26] = test system: MDA-MB-435
[27] = test system: MOLT-4 leukemia
[28] = test system: NCI-H226 lung
[29] = test system: NCI-H460 lung
[30] = test system: NCI-H522 lung
[31] = test system: NCI/ADR-RES ovarian
[32] = test system: OVCAR-3 ovarian
[33] = test system: OVCAR-4 ovarian
[34] = test system: OVCAR-5 ovarian
[35] = test system: OVCAR-8 ovarian
[36] = test system: PC-3 prostate
[37] = test system: RPMI-8226 leukemia
[38] = test system: RXF 393 renal
[39] = test system: SF-268 CNS
[40] = test system: SF-295 CNS
[41] = test system: SF-539 CNS
[42] = test system: SK-MEL-2 melanoma
[43] = test system: SK-MEL-28 melanoma
[44] = test system: SK-MEL-5 melanoma
[45] = test system: SN12C renal
[46] = test system: SNB-19 CNS
[47] = test system: SNB-75 CNS
[48] = test system: SR leukemia
[49] = test system: SW-620 colon
[50] = test system: T-47D breast
[51] = test system: U251 CNS
[52] = test system: UACC-257 melanoma
[53] = test system: UACC-62 melanoma
[54] = test system: UO-31 renal

Compound: COc1cc(-c2ccc3ncnc(NCc4ccccc4)c3c2)cnc1OC
- GI50 [1]: 2.99 µM
- TGI [1]: > 100 µM
- GI50 [2]: 1.78 µM
- TGI [2]: 6.64 µM
- GI50 [3]: 3.59 µM
- TGI [3]: > 100 µM
- GI50 [4]: 2.92 µM
- TGI [4]: > 100 µM
- GI50 [5]: 3.25 µM
- TGI [5]: > 100 µM
- GI50 [6]: 2.02 µM
- TGI [6]: > 100 µM
- GI50 [7]: 4 µM
- TGI [7]: > 100 µM
- GI50 [8]: 7.48 µM
- TGI [8]: > 100 µM
- GI50 [9]: 3.43 µM
- TGI [9]: > 100 µM
- GI50 [10]: 1.89 µM
- TGI [10]: > 100 µM
- GI50 [11]: 14.4 µM
- TGI [11]: > 100 µM
- GI50 [12]: 13.1 µM
- TGI [12]: > 100 µM
- GI50 [13]: 5.68 µM
- TGI [13]: > 100 µM
- GI50 [14]: 6.42 µM
- TGI [14]: > 100 µM
- GI50 [15]: 6.88 µM
- TGI [15]: > 100 µM
- GI50 [16]: 0.544 µM
- TGI [16]: 4.82 µM
- GI50 [17]: 5.02 µM
- TGI [17]: > 100 µM
- GI50 [18]: 1.03 µM
- TGI [18]: 3.52 µM
- GI50 [19]: 51 µM
- TGI [19]: > 100 µM
- GI50 [20]: 50.7 µM
- TGI [20]: > 100 µM
- GI50 [21]: 4.19 µM
- TGI [21]: 27.4 µM
- GI50 [22]: 16.4 µM
- TGI [22]: > 100 µM
- GI50 [23]: 9.59 µM
- TGI [23]: > 100 µM
- GI50 [24]: 0.658 µM
- TGI [24]: 19 µM
- GI50 [25]: 4.72 µM
- TGI [25]: > 100 µM
- GI50 [26]: 56 µM
- TGI [26]: > 100 µM
- GI50 [27]: 3.8 µM
- TGI [27]: > 100 µM
- GI50 [28]: 4.68 µM
- TGI [28]: > 100 µM
- GI50 [29]: 5.83 µM
- TGI [29]: > 100 µM
- GI50 [30]: 4.65 µM
- TGI [30]: > 100 µM
- GI50 [31]: 7.97 µM
- TGI [31]: > 100 µM
- GI50 [32]: 3.94 µM
- TGI [32]: > 100 µM
- GI50 [33]: 62.7 µM
- TGI [33]: > 100 µM
- GI50 [34]: 2.97 µM
- TGI [34]: > 100 µM
- GI50 [35]: 9.42 µM
- TGI [35]: > 100 µM
- GI50 [36]: 2.79 µM
- TGI [36]: > 100 µM
- GI50 [37]: 4.38 µM
- TGI [37]: > 100 µM
- GI50 [38]: 1.33 µM
- TGI [38]: 6.1 µM
- GI50 [39]: 6.43 µM
- TGI [39]: > 100 µM
- GI50 [40]: 3.83 µM
- TGI [40]: > 100 µM
- GI50 [41]: 4.8 µM
- TGI [41]: > 100 µM
- GI50 [42]: 19.5 µM
- TGI [42]: > 100 µM
- GI50 [43]: 9.68 µM
- TGI [43]: > 100 µM
- GI50 [44]: 10.7 µM
- TGI [44]: > 100 µM
- GI50 [45]: 3.74 µM
- TGI [45]: > 100 µM
- GI50 [46]: 9.33 µM
- TGI [46]: > 100 µM
- GI50 [47]: 0.655 µM
- TGI [47]: 6.87 µM
- GI50 [48]: 7.24 µM
- TGI [48]: > 100 µM
- GI50 [49]: 34.2 µM
- TGI [49]: > 100 µM
- GI50 [50]: 0.192 µM
- TGI [50]: 2.82 µM
- GI50 [51]: 77.3 µM
- TGI [51]: > 100 µM
- GI50 [52]: 69.8 µM
- TGI [52]: > 100 µM
- GI50 [53]: 2.97 µM
- TGI [53]: > 100 µM
- GI50 [54]: 1.45 µM
- TGI [54]: > 100 µM
